Data from patent US20220380341A1, “INHIBITORS OF HIV-1 NEF FOR THE TREATMENT OF HIV DISEASE” (priority 2018, published 2022).
Like-named read-outs stand apart in the source and are kept apart here.

Tests used:
[1] = test system: TZM-bl cell line; type: cell-based; conditions: human, 1 μM
Summary of the method: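 TZM-bl cells (HIV-1 LTR-luciferase) infected with HIV-1NL4-3 with compound at 1 μM; luciferase read 48 h later. Percent inhibition normalized to DMSO wild-type infection (0%) and Nef-defective HIV-1 infection (100% of Nef-dependent effect). Viability in uninfected TZM-bl cells by Cell Titer Blue.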

[2] = test system: HIV-1NL4-3; experiment: HIV-1 infectivity assay in TZM-bl reporter cell line (LTR-luciferase, 48 h); type: cell-based; conditions: Human immunodeficiency virus 1, TZM-bl
Summary of the method: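 TZM-bl cells infected with HIV-1NL4-3 ± compound (1 μM), luciferase measured at 48 h. Normalization: DMSO/wild-type = 0% inhibition, DMSO/Nef-defective = 100% of Nef-dependent effect.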

[3] = molecular target: HIV-1 NefNL4-3 (Human immunodeficiency virus type 1 group M subtype B, UniProt P03406, A33V/T15A/T51N/V11I); experiment: Surface plasmon resonance binding to recombinant full-length Nef (NL4-3); conditions: for T, minutes (residence time): 1:1 Langmuir fit, T = 1/koff; for RU30/RUNef (extent of binding): response units at 30 μM relative to Nef immobilized on the SPR chip
[4] = 1.0 μM, TZM-bl reporter cell line, Table 4, read-out: % Infectivity Inhibition
[5] = 48 h, Table 1, TZM-bl cells, 1 μM, 48 h, 100% = Nef-defective HIV-1, read-out: HIV-1 Infectivity % Inhibition Norm. to Δ-Nef @ 1 μM
[6] = KD, M, Table 4, SPR fit 1:1 Langmuir, KD = koff/kon

SMILES	% Cell Viability [1] [%]	Percent Viability @ 1 μM (TZM-bl cells) [1] [%]	inhibition at 1 µM [2, 4] [%]	inhibition at 1 µM [2, 5] [%]	Kd [3] [nM]	Kd [3, 6] [nM]	T, minutes (residence time) ([3]; Table 4)	RU30/RUNef (extent of binding) [3]	Nef NL4-3 Binding, SPR 1:1 or 2-site fitting KD1 ([3]; Table 1, 1:1 Langmuir fit where the KD2 cell says '1 to 1 fitting', else 2-site fit)
Oc1c(CCc2ccc(F)cc2)c(CC2CCN(CC(F)(F)F)CC2)nn1-c1nc2ccccc2[nH]1 [Compound I-1004, 1-(1H-1,3-benzodiazol-2-yl)-4-[2-(4-fluorophenyl)ethyl]-3-{[1-(2,2,2-trifluoroethyl)piperidin-4-yl]methyl}-1H-pyrazol-5-ol]	100	101.3	0	-12.3	354	354	2.82E + 01 minutes	2.27E- 03	
Cc1nn(-c2nc3ccccc3[nH]2)c(O)c1Cc1ccc(Cl)cc1F [Compound I-156, 1-(1H-1,3-benzodiazol-2-yl)-4-[(4-chloro-2-fluorophenyl)methyl]-3-methyl-1H-pyrazol-5-ol]	100	101.5	15.4	15.4	8.56	8.56	7.34E + 02 minutes	3.62E- 03	
OCCc1c(-c2ccc(C(F)(F)F)cc2)nn(-c2nc3ccccc3[nH]2)c1O [Compound I-153, 1-(1H-1,3-benzodiazol-2-yl)-4-(2-hydroxyethyl)-3-[4-(trifluoromethyl)phenyl]-1H-pyrazol-5-ol]	99.9	99.9	0	-20.1	68.8	68.8	9.31E + 00 minutes	9.06E- 04	
Oc1c(CCc2ccc(F)cc2)c(C2CCN(Cc3ccncc3)CC2)nn1-c1nc2ccccc2[nH]1 [Compound I-804, 1-(1H-1,3-benzodiazol-2-yl)-4-[2-(4-fluorophenyl)ethyl]-3-{1-[(pyridin-4-yl)methyl]piperidin-4-yl}-1H-pyrazol-5-ol]		97.5		50	90.8				
CC(=O)N1CCC(c2nn(-c3nc4cc(Cl)ccc4[nH]3)c(O)c2CCC2CCOCC2)CC1 [Compound I-703, 1-{4-[1-(5-chloro-1H-1,3-benzodiazol-2-yl)-5-hydroxy-4-[2-(oxan-4-yl)ethyl]-1H-pyrazol-3-yl]piperidin-1-yl}ethan-1-one]		99.2		-8.1	1540				
COC(=O)N1CCC(c2nn(-c3nc4cc(Cl)ccc4[nH]3)c(O)c2CCn2nccn2)CC1 [Compound I-705, methyl 4-[1-(5-chloro-1H-1,3-benzodiazol-2-yl)-5-hydroxy-4-[2-(2H-1,2,3-triazol-2-yl)ethyl]-1H-pyrazol-3-yl]piperidine-1-carboxylate]		100.9		-13.8	1110				
Oc1c(CCc2ccc(F)cc2)c(CC2CCCNC2)nn1-c1nc2ccccc2[nH]1 (stereo not drawn) [Compound I-556, 1-(1H-1,3-benzodiazol-2-yl)-4-[2-(4-fluorophenyl)ethyl]-3-[(piperidin-3-yl)methyl]-1H-pyrazol-5-ol]		86.1		18.1	783				
O=C(OCc1ccccc1)N1CCC(Cc2nn(-c3nc4ccccc4[nH]3)c(O)c2CCc2ccc(F)cc2)CC1 [Compound I-764, benzyl4-{[1-(1H-1,3-benzodiazol-2-yl)-4-[2-(4-fluorophenyl)ethyl]-5-hydroxy-1H-pyrazol-3-yl]methyl}piperidine-1-carboxylate]		100.6		47.4					No Interaction
